One assay concerns the target T1, recombinant human GBA (Homo sapiens, UniProt P04062).
T1 construct: purchased
T1 sequence (P04062 40-536): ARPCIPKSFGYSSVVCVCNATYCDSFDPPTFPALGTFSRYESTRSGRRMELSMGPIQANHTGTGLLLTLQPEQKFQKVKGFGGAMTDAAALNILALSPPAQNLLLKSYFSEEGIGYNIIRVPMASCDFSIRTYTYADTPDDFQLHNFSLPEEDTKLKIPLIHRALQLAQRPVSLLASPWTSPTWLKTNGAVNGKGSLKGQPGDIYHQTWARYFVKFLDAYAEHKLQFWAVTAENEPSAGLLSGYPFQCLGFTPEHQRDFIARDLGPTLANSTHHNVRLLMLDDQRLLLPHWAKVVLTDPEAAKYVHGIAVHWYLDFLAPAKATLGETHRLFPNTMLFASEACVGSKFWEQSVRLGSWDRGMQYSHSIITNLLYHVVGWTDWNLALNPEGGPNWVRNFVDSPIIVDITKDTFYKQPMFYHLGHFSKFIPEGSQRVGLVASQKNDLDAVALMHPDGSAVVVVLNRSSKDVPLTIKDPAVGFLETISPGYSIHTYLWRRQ
The assay is described as follows: Beta-glucocerebrosidase (GBA) inhibition assay. The assay is classed as biochemical. The note with it: 4-methylumbelliferyl-beta-D-pyranoside substrate, 4-PL curve fit. The method, then:
Beta-glucocerebrosidase (GBA, also referred to glucosylceramidase): To analyze inhibitory effects of a test compound, commercially available recombinant human GBA was incubated with multiple dilutions of test compound for 60 minutes at 37° C. 4-methylumbelliferyl-beta-D-pyranoside was then introduced to the mixture as substrate. Following incubation for 60 minutes at 37° C., 1,4-methyllumbelliferone was generated, and the reaction was stopped with the stop solution (0.5 M glycine; 0.3 M NaOH, pH 10). 1,4-methyllumbelliferone was detected by fluorescence (excitation at 365 nm, emission at 440 nm). Relative fluorescence is compared to untreated enzymatic activity and test compound concentration is then plotted as a function of percent inhibition. The IC50 was determined using a 4-PL curve fit as the measure of relative inhibitory activity of each test compound (see Table 4).

For a further assay, the target named is T2, rat sucrase (Rattus norvegicus, UniProt P23739).
T2 construct: partially purified alpha-glucosidase from intestinal rat powder; from tissue; host or cells: rat intestinal powder
T2 sequence (P23739 whole entry): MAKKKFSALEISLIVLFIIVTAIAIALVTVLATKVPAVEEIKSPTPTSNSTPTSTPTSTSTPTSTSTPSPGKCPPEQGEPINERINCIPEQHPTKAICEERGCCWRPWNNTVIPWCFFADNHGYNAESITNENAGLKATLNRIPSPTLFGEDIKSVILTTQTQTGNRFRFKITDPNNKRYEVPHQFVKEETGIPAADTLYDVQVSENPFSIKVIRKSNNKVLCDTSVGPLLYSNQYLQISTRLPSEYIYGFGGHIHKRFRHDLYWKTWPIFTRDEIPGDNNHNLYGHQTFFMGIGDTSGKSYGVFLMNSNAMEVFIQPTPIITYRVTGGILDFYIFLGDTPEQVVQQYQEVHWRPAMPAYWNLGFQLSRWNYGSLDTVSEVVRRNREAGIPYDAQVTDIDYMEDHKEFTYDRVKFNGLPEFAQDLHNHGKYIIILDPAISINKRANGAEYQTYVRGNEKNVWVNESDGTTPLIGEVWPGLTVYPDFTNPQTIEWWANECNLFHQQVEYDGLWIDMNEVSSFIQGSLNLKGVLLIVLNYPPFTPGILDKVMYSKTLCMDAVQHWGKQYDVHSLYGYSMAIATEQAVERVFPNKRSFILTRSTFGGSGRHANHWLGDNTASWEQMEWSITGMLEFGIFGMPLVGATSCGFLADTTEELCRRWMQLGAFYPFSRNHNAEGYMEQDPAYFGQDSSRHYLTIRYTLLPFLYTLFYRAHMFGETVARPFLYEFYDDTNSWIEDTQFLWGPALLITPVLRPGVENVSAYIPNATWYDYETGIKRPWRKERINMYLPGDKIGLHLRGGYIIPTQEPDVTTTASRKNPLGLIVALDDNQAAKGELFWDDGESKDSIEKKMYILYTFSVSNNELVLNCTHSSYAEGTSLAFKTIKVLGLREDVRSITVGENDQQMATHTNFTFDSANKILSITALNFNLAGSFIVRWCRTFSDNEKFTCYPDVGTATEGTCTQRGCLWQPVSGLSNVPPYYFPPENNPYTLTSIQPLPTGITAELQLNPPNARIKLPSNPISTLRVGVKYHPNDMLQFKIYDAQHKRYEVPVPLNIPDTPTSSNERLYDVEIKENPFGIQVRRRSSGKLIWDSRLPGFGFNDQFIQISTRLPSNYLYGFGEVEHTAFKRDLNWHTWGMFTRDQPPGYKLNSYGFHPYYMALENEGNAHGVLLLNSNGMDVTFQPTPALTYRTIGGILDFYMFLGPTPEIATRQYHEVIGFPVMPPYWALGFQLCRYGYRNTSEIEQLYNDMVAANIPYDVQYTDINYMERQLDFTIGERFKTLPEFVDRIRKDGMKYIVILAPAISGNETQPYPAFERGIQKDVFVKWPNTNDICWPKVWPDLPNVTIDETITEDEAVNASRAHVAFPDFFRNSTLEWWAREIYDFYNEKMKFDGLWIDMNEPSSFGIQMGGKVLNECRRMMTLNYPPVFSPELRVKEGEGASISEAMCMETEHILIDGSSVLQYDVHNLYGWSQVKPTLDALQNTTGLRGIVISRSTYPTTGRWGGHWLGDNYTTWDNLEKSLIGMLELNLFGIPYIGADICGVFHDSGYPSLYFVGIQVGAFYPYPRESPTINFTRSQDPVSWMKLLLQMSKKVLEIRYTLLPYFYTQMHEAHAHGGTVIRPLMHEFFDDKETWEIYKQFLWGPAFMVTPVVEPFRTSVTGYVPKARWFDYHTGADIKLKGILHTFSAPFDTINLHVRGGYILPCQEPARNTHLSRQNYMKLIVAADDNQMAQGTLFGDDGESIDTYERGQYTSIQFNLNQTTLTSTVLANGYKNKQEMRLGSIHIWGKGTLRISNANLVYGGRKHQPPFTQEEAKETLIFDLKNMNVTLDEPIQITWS
The assay is described as follows: Intestinal alpha-glucosidase assay, sucrose substrate. The assay is classed as biochemical. Conditions: alpha-glucosidase from intestinal rat powder. How it is done: Intestinal alpha-glucosidases (rat maltase and sucrase): Intestinal alpha-glucosidases act upon 1,4-alpha-glucoside bonds, breaking down disaccharides to glucose. To perform this assay, partially purified alpha-glucosidase from intestinal rat powder was incubated for 60 minutes at 37° C. with multiple dilutions of test compounds. Maltose or Sucrose respectively was then introduced as substrate to the mixture and incubated for 30 minutes at 37° C. The reaction was stopped by a 5-minute incubation at 90° C. and the resultant glucose production is detected using Sigma's Glucose GO Kit. Percent inhibition was then plotted as a function of concentration for each test compound. The IC50 was determined using a 4-PL curve fit and serves as the measure of relative inhibition of each test compound (see Table 4). Table 4 summarizes the results of IC50s for each molecule against each tested glucosidase enzyme.

What is called IC50 is the point on the concentration scale where inhibition reaches its midpoint.

On to `O=[N+]([O-])c1cc(-n2nccn2)ccc1NCCCCCCN[C@H]1C[C@](O)(CO)[C@@H](O)[C@H](O)[C@H]1O` [Compound 5, (1S,2S,3R,4S,5S)-1-(hydroxymethyl)-5-((6-((2-nitro-4-(2H-1,2,3-triazol-2-yl)phenyl)amino)hexyl)amino)cyclohexane-1,2,3,4-tetraol], for which the half-inhibitory concentration (IC50) is 143 µM on recombinant human GBA and 0.0342 µM at rat sucrase.

For the molecule `O=[N+]([O-])c1cc(-n2ccnn2)ccc1NCCCCCCN[C@H]1C[C@](O)(CO)[C@@H](O)[C@H](O)[C@H]1O` [Compound 6, (1S,2S,3R,4S,5S)-1-(hydroxymethyl)-5-((6-((2-nitro-4-(1H-1,2,3-triazol-1-yl)phenyl)amino)hexyl)amino)cyclohexane-1,2,3,4-tetraol], the values for the IC50 at recombinant human GBA and against rat sucrase were 776 µM and 0.0674 µM, respectively.

Regarding `[N-]=[N+]=Nc1ccc(NCCCCCCN[C@H]2C[C@](O)(CO)[C@@H](O)[C@H](O)[C@H]2O)c([N+](=O)[O-])c1` [Compound 2, (1S,2S,3R,4S,5S)-5-((6-((4-azido-2-nitrophenyl)amino)hexyl)amino)-1-(hydroxymethyl)cyclohexane-1,2,3,4-tetraol], the IC50 at recombinant human GBA is 139 µM; against rat sucrase, below 0.0333 µM.

As to `[N-]=[N+]=Nc1ccc(NCCCCN[C@H]2C[C@](O)(CO)[C@@H](O)[C@H](O)[C@H]2O)c([N+](=O)[O-])c1` [Compound 8, (1S,2S,3R,4S,5S)-5-((4-((4-azido-2-nitrophenyl)amino)butyl)amino)-1-(hydroxymethyl)cyclohexane-1,2,3,4-tetraol], on recombinant human GBA, the IC50 is above 1000 µM.

`COCCCCCCCCCN[C@H]1C[C@](O)(CO)[C@@H](O)[C@H](O)[C@H]1O` [Compound 3, (1S,2S,3R,4S,5S)-1-(hydroxymethyl)-5-((9-methoxynonyl)amino)cyclohexane-1,2,3,4-tetraol]: the half-maximal inhibitory concentration (IC50) at recombinant human GBA was above 1000 µM; at rat sucrase, 0.116 µM.

`O=C(O)CCCCN[C@H]1C[C@](O)(CO)[C@@H](O)[C@H](O)[C@H]1O` [Compound 11, 5-(((1S,2S,3R,4S,5S)-2,3,4,5-tetrahydroxy-5-(hydroxymethyl)cyclohexyl)amino)pentanoic acid]: the IC50 on recombinant human GBA is above 1000 µM; at rat sucrase, 3.16 µM.

As to `N[C@H]1C[C@](O)(CO)[C@@H](O)[C@H](O)[C@H]1O` [Valiolamine], the IC50 at recombinant human GBA was above 1000 µM; against rat sucrase it was 0.334 µM.

Consider `O=[N+]([O-])c1cc(-n2cnnn2)ccc1NCCCCCCN[C@H]1C[C@](O)(CO)[C@@H](O)[C@H](O)[C@H]1O` [Compound 4, (1S,2S,3R,4S,5S)-1-(hydroxymethyl)-5-((6-((2-nitro-4-(1H-tetrazol-1-yl)phenyl)amino)hexyl)amino)cyclohexane-1,2,3,4-tetraol], for which the figures for the IC50 on recombinant human GBA and at rat sucrase were above 1000 µM and 2.93 µM, respectively.

With `O=[N+]([O-])c1cc(-c2ncccn2)ccc1NCCCCCCN[C@H]1C[C@](O)(CO)[C@@H](O)[C@H](O)[C@H]1O` [Compound 7, (1S,2S,3R,4S,5S)-1-(hydroxymethyl)-5-((6-((2-nitro-4-(pyrimidin-2-yl)phenyl)amino)hexyl)amino)cyclohexane-1,2,3,4-tetraol], the IC50 at recombinant human GBA was above 1000 µM.

Turning to `[N-]=[N+]=Nc1ccc(NCCOCCN[C@H]2C[C@](O)(CO)[C@@H](O)[C@H](O)[C@H]2O)c([N+](=O)[O-])c1` [Compound 10, (1S,2S,3R,4S,5S)-5-((2-(2-((4-azido-2-nitrophenyl)amino)ethoxy)ethyl)amino)-1-(hydroxymethyl)cyclohexane-1,2,3,4-tetraol], the IC50 on recombinant human GBA is above 1000 µM.

For the molecule `[N-]=[N+]=Nc1ccc(NCCCCCN[C@H]2C[C@](O)(CO)[C@@H](O)[C@H](O)[C@H]2O)c([N+](=O)[O-])c1` [Compound 9, (1S,2S,3R,4S,5S)-5-((5-((4-azido-2-nitrophenyl)amino)pentyl)amino)-1-(hydroxymethyl)cyclohexane-1,2,3,4-tetraol], the half-maximal inhibitory concentration (IC50) was determined as 103 µM on recombinant human GBA and 0.0112 µM at rat sucrase.
